Data as given in ChEMBL document CHEMBL5154929, “Optimization of the Natural Product Calothrixin A to Discover Novel Dual Topoisomerase I and II Inhibitors with Improved Anticancer Activity” (J Med Chem, 2022).

Columns and labels:
MCF7 = assay: Cytotoxicity against human MCF7 cells expressing high level of topoisomerase I/II measured after 72 hrs by MTT assay; assay type: functional, cell-based; conditions: MCF7, 72 h
SH-SY5Y = assay: Cytotoxicity against human SH-SY5Y cells expressing low level of topoisomerase I/II measured after 72 hrs by MTT assay; assay type: functional, cell-based
HCT-116 = assay: Cytotoxicity against human HCT-116 cells expressing high level of topoisomerase I/II measured after 72 hrs by MTT assay; assay type: functional, cell-based; conditions: HCT-116, 72 h
[1] = Cytotoxicity against human L02 cells measured after 72 hrs by MTT assay; assay type: toxicity, cell-based
A-375 = assay: Cytotoxicity against human A-375 cells expressing high level of topoisomerase I/II measured after 72 hrs by MTT assay; assay type: functional, cell-based; conditions: A-375, 72 h
A549 = assay: Cytotoxicity against human A549 cells expressing high level of topoisomerase I/II measured after 72 hrs by MTT assay; assay type: functional, cell-based; conditions: A549, 72 h
MDA-MB-231 = assay: Cytotoxicity against human MDA-MB-231 cells expressing high level of topoisomerase I/II measured after 72 hrs by MTT assay; assay type: functional, cell-based; conditions: MDA-MB-231, 72 h
[2] = Cytotoxicity against human HEK293T cells measured after 72 hrs by MTT assay; assay type: toxicity, cell-based, HEK-293T

| Structure (SMILES) | IC50 (MCF7) | IC50 (SH-SY5Y) | IC50 (HCT-116) | IC50 at 72 h [1] | IC50 (A-375) | IC50 (A549) | IC50 (MDA-MB-231) | IC50 at 72 h [2] |
| --- | --- | --- | --- | --- | --- | --- | --- | --- |
| O=C1c2c[n+]([O-])c3ccccc3c2C(=O)c2c1c1ccccc1n2CCCCN1CCN(CCO)CC1 | 380 nM | 450 nM | 330 nM | 880 nM | 470 nM | 200 nM | 740 nM | – |
| CN(C)CCCn1c2c(c3ccccc31)C(=O)c1c[n+]([O-])c3ccccc3c1C2=O | 240 nM | 330 nM | 350 nM | 490 nM | 410 nM | 310 nM | 490 nM | 130 nM |
| CC(=O)OC[C@@H]1OC(C)(C)O[C@H]1Cn1cc(Cn2c3c(c4ccccc42)C(=O)c2c[n+]([O-])c4ccccc4c2C3=O)nn1 | > 1000 nM | > 1000 nM | 580 nM | 1060 nM | 430 nM | > 1000 nM | > 1000 nM | 10200 nM |
| CN(C)CCn1c2c(c3ccccc31)C(=O)c1c[n+]([O-])c3ccccc3c1C2=O | 200 nM | 170 nM | 110 nM | 750 nM | 140 nM | 200 nM | 160 nM | – |
| CC[C@@]1(O)C(=O)OCc2c1cc1n(c2=O)Cc2cc3ccccc3nc2-1 [CAMPTOTHECIN] | 350 nM | 610 nM | 600 nM | 140 nM | 660 nM | 370 nM | 490 nM | 690 nM |
| O=C1c2c[n+]([O-])c3ccccc3c2C(=O)c2c1c1ccccc1n2CCCCn1ccnc1 | 130 nM | 130 nM | 240 nM | 150 nM | 350 nM | 170 nM | 210 nM | 280 nM |
| CC1(C)OCC(Cn2cc(Cn3c4c(c5ccccc53)C(=O)c3c[n+]([O-])c5ccccc5c3C4=O)nn2)O1 (centres undefined) | 290 nM | 230 nM | 70 nM | 120 nM | 330 nM | 80 nM | 230 nM | 5510 nM |
| CN(C)CCCCCn1c2c(c3ccccc31)C(=O)c1c[n+]([O-])c3ccccc3c1C2=O | 200 nM | 370 nM | 470 nM | 240 nM | 560 nM | 210 nM | 240 nM | 70 nM |
| O=C1c2c[n+]([O-])c3ccccc3c2C(=O)c2c1c1ccccc1n2Cc1cn([C@H]2O[C@H](CO)[C@@H](O)[C@H]2O)nn1 | 1490 nM | 1340 nM | 710 nM | 950 nM | 340 nM | 2680 nM | 1700 nM | 1370 nM |
| O=C1c2c[n+]([O-])c3ccccc3c2C(=O)c2c1c1ccccc1n2CCCCN1CCCCC1 | 150 nM | 230 nM | 200 nM | 610 nM | 190 nM | 150 nM | 610 nM | – |
| O=C1c2c[n+]([O-])c3ccccc3c2C(=O)c2c1c1ccccc1n2CCN1CCCC1 | 320 nM | 520 nM | 270 nM | 930 nM | 430 nM | 410 nM | 630 nM | – |
| O=C1c2c[n+]([O-])c3ccccc3c2C(=O)c2c1c1ccccc1n2CCCCN1CCOCC1 | 130 nM | 170 nM | 90 nM | 510 nM | 170 nM | 90 nM | 240 nM | – |
| CC1(C)O[C@@H](CO)[C@H](Cn2cc(Cn3c4c(c5ccccc53)C(=O)c3c[n+]([O-])c5ccccc5c3C4=O)nn2)O1 | 690 nM | > 1000 nM | 130 nM | 500 nM | 190 nM | 370 nM | 680 nM | 120 nM |
| O=C1c2c[n+]([O-])c3ccccc3c2C(=O)c2c1c1ccccc1n2CCCN1CCC(O)CC1 | 190 nM | 130 nM | 190 nM | 120 nM | 240 nM | 350 nM | 280 nM | 170 nM |
| CC(=O)OC[C@H]1O[C@H](n2cc(Cn3c4c(c5ccccc53)C(=O)c3c[n+]([O-])c5ccccc5c3C4=O)nn2)[C@H](OC(C)=O)[C@@H]1OC(C)=O | 670 nM | 510 nM | 150 nM | 90 nM | 690 nM | 430 nM | 250 nM | 210 nM |
| O=C1c2c[n+]([O-])c3ccccc3c2C(=O)c2c1c1ccccc1n2Cc1cn(CC(O)CO)nn1 (centres undefined) | 1110 nM | > 1000 nM | 250 nM | 1070 nM | 440 nM | 880 nM | 1290 nM | 760 nM |

| Structure (SMILES) | IC50 (MCF7) | IC50 (SH-SY5Y) | IC50 (HCT-116) | IC50 at 72 h [1] | IC50 (A-375) | IC50 (A549) | IC50 (MDA-MB-231) | IC50 at 72 h [2] |
| --- | --- | --- | --- | --- | --- | --- | --- | --- |
| CC(=O)OC[C@H]1O[C@@H](n2cc(Cn3c4c(c5ccccc53)C(=O)c3c[n+]([O-])c5ccccc5c3C4=O)nn2)[C@H](OC(C)=O)[C@@H]1OC(C)=O | 460 nM | 1900 nM | 650 nM | 270 nM | 150 nM | 1160 nM | 600 nM | 900 nM |
| O=C1c2c[n+]([O-])c3ccccc3c2C(=O)c2c1c1ccccc1n2CCCCCN1CCOCC1 | 260 nM | 300 nM | 300 nM | 330 nM | 230 nM | 130 nM | 330 nM | 150 nM |
| O=C1c2c[n+]([O-])c3ccccc3c2C(=O)c2c1c1ccccc1n2CCN1CCCCC1 | 620 nM | 1860 nM | 780 nM | 1050 nM | 180 nM | 1080 nM | 1050 nM | – |
| O=C1c2c[n+]([O-])c3ccccc3c2C(=O)c2c1c1ccccc1n2Cc1cn(C[C@H](O)CO)nn1 | > 1000 nM | > 1000 nM | 400 nM | 1130 nM | 350 nM | 1030 nM | 1310 nM | 8880 nM |
| O=C1c2c[n+]([O-])c3ccccc3c2C(=O)c2c1c1ccccc1n2CCN1CCOCC1 | 1740 nM | 2020 nM | 1280 nM | 1730 nM | 820 nM | 560 nM | 2030 nM | – |
| CC(=O)OC[C@H]1O[C@@H](n2cc(Cn3c4c(c5ccccc53)C(=O)c3c[n+]([O-])c5ccccc5c3C4=O)nn2)C[C@@H]1OC(C)=O | 550 nM | > 500 nM | 120 nM | 350 nM | 140 nM | 1830 nM | 550 nM | 2540 nM |
| CC1(C)OC[C@H](Cn2cc(Cn3c4c(c5ccccc53)C(=O)c3c[n+]([O-])c5ccccc5c3C4=O)nn2)O1 | 530 nM | 820 nM | 130 nM | 470 nM | 180 nM | 340 nM | 530 nM | 100 nM |
| O=C1c2c[n+]([O-])c3ccccc3c2C(=O)c2c1c1ccccc1n2CCCN1CCOCC1 | 450 nM | 590 nM | 410 nM | 550 nM | 330 nM | 400 nM | 550 nM | 170 nM |
| CCOC(=O)[C@@H]1OC(C)(C)O[C@H]1Cn1cc(Cn2c3c(c4ccccc42)C(=O)c2c[n+]([O-])c4ccccc4c2C3=O)nn1 | > 1000 nM | > 1000 nM | 780 nM | 840 nM | 570 nM | > 1000 nM | 1040 nM | 130 nM |
| O=C1c2c[n+]([O-])c3ccccc3c2C(=O)c2c1c1ccccc1n2Cc1cn(C[C@@H](O)CO)nn1 | 600 nM | > 500 nM | 190 nM | 490 nM | 140 nM | 390 nM | 670 nM | 2030 nM |
| O=C1c2c[n+]([O-])c3ccccc3c2C(=O)c2c1c1ccccc1n2Cc1cn([C@@H]2O[C@H](CO)[C@@H](O)[C@H](O)[C@H]2O)nn1 | 590 nM | 880 nM | 130 nM | 420 nM | 230 nM | 560 nM | 650 nM | 940 nM |
| CN1CCN(CCCCCCn2c3c(c4ccccc42)C(=O)c2c[n+]([O-])c4ccccc4c2C3=O)CC1 | 400 nM | 920 nM | 2900 nM | 3800 nM | 630 nM | 330 nM | 2400 nM | 5800 nM |
| CC(=O)OC[C@H]1O[C@H](n2cc(Cn3c4c(c5ccccc53)C(=O)c3c[n+]([O-])c5ccccc5c3C4=O)nn2)C[C@@H]1OC(C)=O | 1280 nM | > 1000 nM | 380 nM | 2780 nM | 550 nM | 1140 nM | 1190 nM | 120 nM |
| CCCCN1CCN(CCCCn2c3c(c4ccccc42)C(=O)c2c[n+]([O-])c4ccccc4c2C3=O)CC1 | 6900 nM | 6100 nM | 1920 nM | 5690 nM | 2150 nM | 550 nM | 900 nM | – |
| CCCN1CCN(CCCCn2c3c(c4ccccc42)C(=O)c2c[n+]([O-])c4ccccc4c2C3=O)CC1 | 1280 nM | 3970 nM | 790 nM | 6830 nM | 870 nM | 320 nM | 2980 nM | – |
